Publication PMC4155686, “Oleoyl Coenzyme A Regulates Interaction of Transcriptional Regulator RaaS (Rv1219c) with DNA in Mycobacteria*” (The Journal of Biological Chemistry, 2014)

Molecular target: RaaS (Rv1219c) (Mycobacterium tuberculosis, UniProt O86312)
Assay: biochemical

Sequence of RaaS (Rv1219c) (O86312 whole entry): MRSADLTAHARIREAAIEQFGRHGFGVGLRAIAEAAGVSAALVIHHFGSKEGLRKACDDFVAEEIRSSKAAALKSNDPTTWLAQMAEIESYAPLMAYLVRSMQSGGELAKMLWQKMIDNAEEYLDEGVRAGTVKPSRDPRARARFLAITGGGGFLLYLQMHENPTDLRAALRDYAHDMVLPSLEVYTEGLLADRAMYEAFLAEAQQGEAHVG

CCCCCCCC/C=C\CCCCCCCC(=O)SCCNC(=O)CCNC(=O)[C@H](O)C(C)(C)COP(=O)(O)OP(=O)(O)OC[C@H]1O[C@@H](n2cnc3c(N)ncnc32)[C@H](O)[C@@H]1OP(=O)(O)O [oleoyl-CoA]
Kd: 3.65 ± 0.28 µM
